Consider three molecules from patent US8425880B1, “Metal-containing materials for treatment of bacterial conditions” (priority 2007, dated 2013).

The subject of one assay is C. difficile. It counts as cell-based, Clostridium difficile. The note with it: for Microdilution MIC: pH 4.
Assay [1] deals with C. difficile spores (strain ATCC 43596). Description: Sporicidal assay. Further details: key to growth after 5-6 days of subculture: presence (+) or absence (−) of growth after 5-6 days of subculture; presence (+) or absence (−) of growth after 5-6 days of subculture. It counts as cell-based, Clostridium difficile. How it is done:
Louis, Mo.). […] Silver preparations were filtered at 0.2 microns and stored in the dark at room temperature. Spore germination was induced as previously described in, for example, […] and Sonenshein A L. Mol Microbiol. 2003 48(3): 811-821; and Ionesco H. C R Acad Sci Hebd […]. 25; 287(6):659-61. C. difficile suspended in BHI was heat-killed at 80° C. for 10 minutes, and germination then stimulated by a 30-min incubation at 50° C. in the presence of 165 μM thioglycollate, followed by a 15-min incubation at 37° C. in the presence of 4 mg/ml lysozyme.

The subject of the next assay is C. perfringens. It counts as cell-based, Clostridium perfringens.

Several values for one entry are separate records, joined by “and”; a condition that tells them apart may be missing. Equal values may be shown once.

Turning to silver (I) oxide [Ag2O], the “Microdilution MIC” value in the assay on C. difficile was 16 ppm and 31 ppm. Further, the “inactivation of C. difficile spores” value in assay [1] is “inactivated the spores of C. difficile”. The “growth after 5-6 days of subculture” value is reported as “−” in assay [1] (Expt 3, Conc. 0.01%) and “−” in assay [1] (Expt 3, Conc. 0.03%).

As to `O=CCCCC=O` [Glutaraldehyde, glutaraldehyde], the “growth after 5-6 days of subculture” value in assay [1] (Expt 1, Conc. 0.02%) is given as “+”; in assay [1] (Expt 1, Conc. 0.2%), “−”; in assay [1] (Expt 1, Conc. 2%) it was “−”.

Take `O=[N+]([O-])[O-].[Ag+]` [AgNO3, Silver nitrate]: the MIC is reported as 92 ppm (μg/ml) against C. perfringens and 18 (8-23) ppm (μg/ml) against C. difficile. Besides, the “Microdilution MIC” value in the assay with C. difficile was 18 ppm and 9 ppm. The “inactivation of C. difficile spores” value in assay [1] is recorded as “inactivated the spores of C. difficile”. For the same molecule, the “growth after 5-6 days of subculture” value in assay [1] (Expt 2, Conc. 0.00005%) is listed as “+”; in assay [1] (Expt 2, Conc. 0.0005%), “−”; in assay [1] (Expt 2, Conc. 0.005%), “−”; in assay [1] (Expt 2, Conc. 0.05%), “−”; in assay [1] (Expt 3, Conc. 0.01%), “−”; in assay [1] (Expt 3, Conc. 0.03%), “−”.
